Where “and” joins values, the source holds several entries; their conditions need not be identical. Equal values may be shown once.
Experiments:
HSP90 and HSP70 = assay: Western blotting of HSP90 and HSP70 protein levels in LNCaP and 22RV1 cells; format: cell-based, human; conditions: 12 h
in vivo = conditions: rat; for half-life: plasma
Method: Pharmacokinetic studies in vivo[37] and CYP-associated metabolic studies in vitro[56] were performed using the method reported previously in our laboratory. […] The incubation system, sample preparation and chromatography conditions are as described previously.
A simple and sensitive method for the determination of AIL in plasma was developed, using high-performance liquid chromatography-tandem mass spectrometry (HPLC-MS/MS). Brusatol was used as an internal standard. […] The details of this HPLC-MS/MS method and sample preparation are described in our previous study.
The statistical analysis was performed by SPSS 22.0 software. The differences between control group and experimental groups were determined by one-way analysis of variance. Since treatment and time course was investigated, two-way analysis of variance followed by post hoc test was also applied. Data were expressed as mean and s.d., and P<0.05 was considered significant. Pharmacokinetic parameters were calculated by WinNonlin software version 5.2.1 (Pharsight Corporation, Mountain View, USA) based on noncompartmental analysis. […]
Pharmacokinetic study of ailanthone in rats
Sprague-Dawley rats (purchased from Shanghai SLAC laboratory animal Co. Ltd., Shanghai, China) were fasted for 12 h with free access to water prior to the pharmacokinetic study. The rats were randomized into two groups for oral administration (5mg/kg) and intravenous injection (1mg/kg). Blood samples were collected from the orbital plexus into heparinized centrifuge tubes at fifteen different time points between 5 min to 36 h for the oral administration group and nine time points between 5 min to 6 h for the intravenous one. The pharmacokinetic parameters were calculated by WinNonlin software version 5.2.1 based on noncompartmental analysis. Oral bioavailability was calculated as F (%) = AUC0-∞(p.o.) / AUC0-∞(i.v.) × Dose (i.v.) / Dose (p.o.). […]
Supplementary Figure 9C). […]

c4-2b cells = assay: SRB cell growth assay, c4-2b; conditions: R1881, 96 h, 10 μM
22RV1 cells = assay: SRB cell growth assay, 22RV1; conditions: 22RV1, R1881, 96 h, 10 μM
LNCaP cells = assay: SRB cell growth assay, LNCaP; conditions: androgen-starved LNCaP, 0.1 nM R1881, 96 h; 10 μM BIC, 10 μM MDV, 0.1-0.4 μM AIL
LNCaP-MDV3100-R cells = assay: SRB cell growth assay, LNCaP-MDV3100-R; format: cell-based, human; conditions: 72 h, 20 μM
Method: Cell growth was determined by SRB assay.
the SRB assay (n = 5). The half maximal inhibitory concentration (IC50) was calculated using GraphPad Prism 5.0 (GraphPad, San Diego, CA).

LNCaP xenografts = assay: LNCaP subcutaneous xenograft in BALB/c-nude mice; format: in vivo, mouse; conditions: 10 mg kg^−1 per day BIC or 2 mg kg^−1 per day AIL, i.p.
Method: (§1) (a–c) 22RV1 (a), LNCaP (b) and VCaP (c) cells suspended in 0.1 ml PBS (22RV1) or matrigel (LNCaP, VCaP) were injected into the right flank of BALB/c-nude mice. Androgen containing blocks were subcutaneously inserted into each mouse in the LNCaP and VCaP xenograft models. […] The control group was injected with DMSO. Tumour volume and the mouse body weight were measured twice per week.
(§2) BALB/c-nude mice (6–8-weekold, male) were purchased from the Sino-British Sippr/BK Lab Animal Co., Ltd (Shanghai, China) and maintained under pathogen-free conditions. The animal use protocol was approved by the Institutional Animal Care and Use Committee of East China Normal University. The 22RV1, LNCaP and VCaP xenograft tumour models were developed by injecting 3 × 10^6 22RV1 cells or 5 × 10^6 LNCaP or VCaP cells in suspension into the right flank of a BALB/c-nude mouse; cells were suspended in 100 μl PBS or 50% matrigel (LNCaP and VCaP), respectively. Specifically for LNCaP and VCaP cells, continuous release testosterone pellets (15 mg testosterone per pellet, Sigma-Aldrich) were implanted subcutaneously to stimulate the growth of LNCaP and VCaP xenografts. […] The tumour volume and mouse body weight were measured twice a week. The tumour volume was calculated using the following equation: tumour volume (V)=length × width × width × 0.52. […]
(§3) Tumor volume and the mouse body weight were measured once a week. […]

22RV1 xenografts = assay: 22RV1 subcutaneous xenograft in BALB/c-nude mice; format: in vivo, mouse; conditions: 10 mg kg^−1 per day BIC or 2 mg kg^−1 per day AIL, i.p.
AR protein = assay: Western blotting of AR protein level in PCa cell lines; format: cell-based, human; conditions: LNCaP, 22RV1, LNCaP-MDV3100-R and VCaP cell lines (CEL: LNCaP and 22RV1, 12 h)
Text: Scale bars, 10 μm. […] Scale bars, 20 μm.

[1] = test system: 22RV1-luc orthotopic xenografts; assay: Orthotopic castration-resistant prostate cancer model (22RV1-luc, castrated mice); format: in vivo, mouse; conditions: i.p. once per day, 28 days, AIL 2 mg kg^−1 (95% CI 70–95%), MDV 10 mg kg^−1 (95% CI 0–36%)
Method: (d) Male BALB/c-nude mice were anaesthetized, and the dorsolateral prostate was injected with 22RV1-luc cells in matrigel. […] Tumours were imaged every week to determine local tumour growth and evidence of tumour cell dissemination. Representative images of three mice per group were illustrated (n=5). (e) After 28 days, mice were killed and local tumours and viscera of the mice were imaged to determine tumour growth and evidence of tumour cell dissemination.
For orthotopic castration-resistant prostate cancer xenografts, male BALB/c-nude mice (8–9 weeks of age) were anaesthetized using 150 mg kg^−1 2, 2, 2-tribromethanol plus 350 mg kg^−1 tert-amyl alcohol and then 5 × 10^5 22RV1-luc cells suspended in 30 μl 50% matrigel were surgically injected into the dorsolateral prostate lobes. One week after injection, the tumour-bearing mice were castrated and randomly assigned to three groups. […] Prostate tumour growth and local metastasis were monitored weekly using the IVIS Imaging System (Xenogen Corporation, Alameda, CA). Images and measurements of bioluminescent signals were acquired and analysed using Living Image and Xenogen software[52].

PSA mRNA = assay: Quantitative-PCR of PSA mRNA in 22RV1 cells; conditions: 12 h
Method: Total RNA was extracted using TRIzol (Takara, Japan) according to the manufacturer's instructions. One microgram of total RNA was used for complementary DNA synthesis using a cDNA reverse transcription kit (Takara, Japan). Real-time PCR was performed in triplicate using gene-specific primers on a Stratagene Mx3005P PCR system (Agilent Technologies) machine. The mRNA expression levels were normalized to β-actin expression or GAPDH.

VCaP xenografts = assay: VCaP subcutaneous xenograft in BALB/c-nude mice; format: in vivo, mouse; conditions: 2 mg/kg AIL or 10 mg/kg MDV, i.p.
Method: as §1, §2, §3

[2] = Sprague-Dawley, in vivo, iv, 1 mg/kg
[3] = Sprague-Dawley, in vivo, po, 5 mg/kg

## C=CCNC1=C2C[C@@H](C)C[C@H](OC)[C@H](O)[C@@H](C)/C=C(\C)[C@H](OC(N)=O)[C@@H](OC)/C=C\C=C(/C)C(=O)NC(=CC1=O)C2=O [17-AAG]
HSP90 and HSP70
  HSP90 and HSP70 protein levels: induced upregulation

## C=C1[C@@H](O)[C@]2(O)OC[C@]34[C@H]2[C@@]2(C)[C@H](O)C(=O)C=C(C)[C@@H]2C[C@H]3OC(=O)C[C@@H]14 [AIL, Ailanthone]
In vivo; Sprague-Dawley, in vivo
  bioavailability: 25.7%
In vivo; [2]
  AUC(0-inf): 1030 ng·h/mL
  AUC(0-t): 965 ng·h/mL
  C0: 1650 ng/mL and 4.39 µM
In vivo; [3]
  AUC(0-inf): 1320 ng·h/mL
  AUC(0-t): 1120 ng·h/mL
  Cmax: 87 ng/mL and 231 nM
  Tmax: 0.388 h
In vivo; iv, i.v. 1 mg kg^−1, n=6, mean±s.d.
  half-life: 1.89 ± 0.66 h
In vivo; po, p.o. 5 mg kg^−1, n=6, mean±s.d.
  half-life: 12.2 ± 2.6 h

## CC(O)(CS(=O)(=O)c1ccc(F)cc1)C(=O)Nc1ccc(C#N)c(C(F)(F)F)c1 (centres unmarked) [BIC, bicalutamide]
c4-2b cells
  cell growth (SRB): could not significantly inhibit cell growth
22RV1 cells
  cell growth (SRB): could not significantly inhibit cell growth
LNCaP cells
  cell growth (SRB): effectively blocked cell growth
LNCaP-MDV3100-R cells
  cell growth (SRB): totally resistant
LNCaP xenografts
  tumour volume: significantly reduced the tumour volume
22RV1 xenografts
  tumour growth: resistant

## CC1=C(O)C(=O)C=C2C1=CC=C1[C@@]2(C)CC[C@@]2(C)[C@@H]3C[C@](C)(C(=O)O)CC[C@]3(C)CC[C@]12C [CEL, Celastrol]
AR protein
  AR protein level: downregulated the protein level of AR

## CNC(=O)c1ccc(N2C(=S)N(c3ccc(C#N)c(C(F)(F)F)c3)C(=O)C2(C)C)cc1F [MDV, MDV3100]
[1]
  reduction of tumour volume: 15%
c4-2b cells
  cell growth (SRB): could not significantly inhibit cell growth
22RV1 cells
  cell growth (SRB): could not significantly inhibit cell growth
LNCaP cells
  cell growth (SRB): effectively blocked cell growth
LNCaP-MDV3100-R cells
  cell growth (SRB): totally resistant
PSA mRNA; 22RV1, 10 nM R1881, 10 μM MDV or 0.2 μM AIL
  PSA mRNA level in the presence of R1881: decreased
PSA mRNA; 22RV1, no R1881, 10 μM MDV or 0.2 μM AIL
  PSA mRNA level in the absence of R1881: no effect
VCaP xenografts
  response of xenografts: still responded

From paper PMC5159881 (Nature Communications, 2016)
